Measured values reported in patent publication EP0548931A1, “Material for controlling pests” (SUMITOMO CHEMICAL COMPANY, LIMITED, priority 1991, dated 1993).

Legend:
sweetpotato whitefly [1] = assay: Test Example 5: gravure-printed yellow Kent paper (Production Example 4) in net room with cabbages, count of larvae; format: in vivo, Bemisia tabaci; settings: after 1 month; larvae parasitized on five randomly selected cabbages; yellow Kent paper 10 cm x 2 m, 5 g/m²; 800 adults released
Protocol: Five parts of the insect growth regulator is dissolved in 65 parts of a vegetable oil, and then 20 parts of a mineral oil and 10 parts of a surface active agent are added thereto and mixed. The resulting solution is applied to a roll of yellow Kent paper of 50 cm in width and 2,000 m in length by gravure printing to obtain a material for controlling pests containing 5 g/m² of the active ingredient. […] A material for controlling pests prepared according to Production Example 4 with pyriproxyfen (insect growth regulator), a cotton seed oil (vegetable oil), tetradecane (mineral oil) and Span 85® (surface active agent produced by ICI Americas Inc.) was formed into a size of 10 cm x 2 m. It was set at a height of 30 cm above the floor surface between the rows of cabbages. Eight hundred adults of sweetpotato whitefly were released in the net room. After 1 month, the number of larvae parasitized on five randomly selected cabbages was counted.

sweetpotato whitefly [2] = assay: Test Example 7: yellow Kent paper (Production Example 6) in net cage, hatching inhibition; format: in vivo, Bemisia tabaci; settings: yellow Kent paper 15 cm x 15 cm, 5 g/m², cotton seed oil, tetradecane, Span 85; eggs laid on kidney bean
Protocol: Five parts of the insect growth regulator is dissolved in 65 parts of a vegetable oil, and then 20 parts of a mineral oil and 10 parts of a surface active agent are added thereto and mixed. 2.25 Grams of the resulting solution is absorbed in a square yellow Kent paper having a side of 15 cm to obtain a material for controlling pests containing 5 g/m² of the active ingredient. The material for controlling pests containing pyriproxyfen (insect growth regulator), a cotton seed oil (vegetable oil), tetradecane (mineral oil) and Span 85® (surface active agent produced by ICI Americas Inc.) prepared according to Production Example 6 was formed into a size of 15 cm x 15 cm. It was set on one wall surface of a nylon net cage of 30 cm x 30 cm x 30 cm in size. About 100 adults of sweetpotato whitefly were released in the cage together with kidney bean on which the adults had been parasitized. One day after release of the adults, a potted kidney bean having no adults parasitized thereon was set in the cage for oviposition. Among the eggs laid on the potted kidney bean until the next day, the number of unhatched eggs was counted.

Thrips palmi = assay: Test Example 12: blue polyethylene sheet (Production Example 10) in glass vessel with cucumber seedlings, count of adults; format: in vivo; settings: 28° ±1°C
Excerpt: The same procedure as in Production Example 9 is repeated except that a colored master batch for blue coloration (SPEM 510 produced by Sumika Color Co.; pigment content: 12 wt.%) replaces the colored master batch for yellow coloration. Thus, a sheet-form material for controlling pests is obtained.
Soil was placed on the bottom of a glass vessel of 70 cm x 35 cm x 35 cm in size. Three cucumber seedings, on which Thrips palmi had been parasitized, were planted at the central part of the glass vessel. After three days, the material for controlling pests prepared according to Production Example 10 was formed into a size of 15 cm x 15 cm and set at a height of 5 cm above the ground. On the other hand, the same test was carried out by setting a blue film containing no insect growth regulator, a control, in the same manner as in setting the above material for controlling pests.
On the predetermined day, the number of Thrips palmi adults parasitized on the cucumbers was counted. The tests were carried out in a room kept at 28° ±1°C.

greenhouse whiteflies [3] = assay: Test Example 1: yellow cloth material (Production Example 2) set beside tomato, count of adults; format: in vivo, Trialeurodes vaporariorum
Protocol: 0.4 Part of the insect growth regulator is dissolved in 40 parts of acetone and further 0.8 part of rape seed oil is added thereto. Thirty-one milliliters of the resulting solution is absorbed in a yellow cloth of 21 cm x 92 cm in size. Acetone is then vaporized to obtain a material for controlling pests containing 0.16 mg/cm² of the active ingredient. A material for controlling pests with pyriproxyfen as insect growth regulator was prepared according to Production Example 2. It was set at the same height as that of a container (80 cm x 112 cm x 45 cm) in which tomato having greenhouse whiteflies parasitized thereon had been planted. On the other hand, a yellow cloth containing no insect growth regulator was set as a control at a distance of about 8 m. On the predetermined day, the number of greenhouse whitefly adults parasitized on the tomato was counted.

sweetpotato whitefly [4] = assay: Test Example 6: spray-coated yellow Kent paper (Production Example 5) in net cage, hatching inhibition; format: in vivo, Bemisia tabaci; settings: yellow Kent paper 15 cm x 15 cm, 1 g/m², spray-coated from acetone; eggs laid on kidney bean
Protocol: One part of the insect growth regulator is dissolved in 99 parts of acetone. One hundred grams of the resulting solution is spray-coated onto a square yellow Kent paper having a side of 100 cm to obtain a material for controlling pests containing 1 g/m² of the active ingredient. A material for controlling pests with pyriproxyfen as insect growth regulator prepared according to Production Example 5 was formed into a size of 15 cm x 15 cm. It was set on one wall surface of a nylon net cage of 30 cm x 30 cm x 30 cm in size. About 100 adults of sweetpotato whitefly were released in the cage together with kidney bean on which the adults had been parasitized. One day after release of the adults, a potted kidney bean having no adults parasitized thereon was set in the cage for oviposition. Among the eggs laid on the potted kidney bean until the next day, the number of unhatched eggs was counted.

greenhouse whiteflies [5] = assay: Test Example 10: yellow polyethylene sheet (Production Example 9) set beside tomato, count of adults; format: in vivo, Trialeurodes vaporariorum
Protocol: Ninety-eight parts by weight of a polyethylene resin (Sumikathene®; a registered trade mark of Sumitomo Chemical Co., Ltd.), 1 part by weight of pyriproxyfen, a juvenile hormone-like compound, and 1 part by weight of a polyethylene colored master batch for yellow coloration (SPEM 305 produced by Sumika Color Co., pigment content: 12 wt.%) are kneaded with a pressure kneader and then pelletized. The resulting pellet is extruded through an extruder equipped with a T-dies at 160° to 180°C to obtain a sheet-form material for controlling pests of 1 mm in thickness. A sheet-like material for controlling pests prepared according to Production Example 9 was formed into a size of 15 cm x 15 cm. It was set at the same height as that of a container (80 cm x 112 cm x 45 cm) in which tomato having greenhouse whiteflies parasitized thereon had been planted. On the other hand, a yellow film containing no insect growth regulator was set as a control in the same manner as in setting the above material for controlling pests. On the predetermined day, the number of greenhouse whitefly adults parasitized on the tomato was counted.

## CC(COc1ccc(Oc2ccccc2)cc1)Oc1ccccn1 (stereo not drawn) [pyriproxyfen, 4-phenoxyphenyl 2-(2-pyridyloxy)propyl ether]
Sweetpotato whitefly [1]
  Number of larvae: 192
Sweetpotato whitefly [2]
  Hatching inhibitory rate (%): 90.6%
Thrips palmi; 0 days elapsed after setting, blue polyethylene sheet 15 cm x 15 cm
  number of Thrips palmi adults parasitized on the cucumbers: 3
Thrips palmi; 7 days elapsed after setting, blue polyethylene sheet
  number of Thrips palmi adults parasitized on the cucumbers: 4
Thrips palmi; 14 days elapsed after setting, blue polyethylene sheet
  number of Thrips palmi adults parasitized on the cucumbers: 3
Thrips palmi; 21 days elapsed after setting, blue polyethylene sheet
  number of Thrips palmi adults parasitized on the cucumbers: 2
Greenhouse whiteflies [3]; 0 days elapsed after setting, 0.16 mg/cm² active ingredient, rape seed oil
  number of greenhouse whitefly adults parasitized on the tomato (mean value per cup): 102
Greenhouse whiteflies [3]; 7 days elapsed after setting, 0.16 mg/cm²
  number of greenhouse whitefly adults parasitized on the tomato (mean value per cup): 82
Greenhouse whiteflies [3]; 14 days elapsed after setting, 0.16 mg/cm²
  number of greenhouse whitefly adults parasitized on the tomato (mean value per cup): 82
Greenhouse whiteflies [3]; 18 days elapsed after setting, 0.16 mg/cm²
  number of greenhouse whitefly adults parasitized on the tomato (mean value per cup): 53
Greenhouse whiteflies [3]; 28 days elapsed after setting, 0.16 mg/cm²
  number of greenhouse whitefly adults parasitized on the tomato (mean value per cup): 18
Greenhouse whiteflies [3]; 35 days elapsed after setting, 0.16 mg/cm²
  number of greenhouse whitefly adults parasitized on the tomato (mean value per cup): 12
Greenhouse whiteflies [3]; 42 days elapsed after setting, 0.16 mg/cm²
  number of greenhouse whitefly adults parasitized on the tomato (mean value per cup): 5
Sweetpotato whitefly [4]
  Hatching inhibitory rate (%): 99.0%
Greenhouse whiteflies [5]; 0 days elapsed after setting, yellow polyethylene sheet 1 mm, 1 part by weight pyriproxyfen, 15 cm x 15 cm
  number of greenhouse whitefly adults parasitized on the tomato (mean value per cup): 105
Greenhouse whiteflies [5]; 7 days elapsed after setting, yellow polyethylene sheet
  number of greenhouse whitefly adults parasitized on the tomato (mean value per cup): 78
Greenhouse whiteflies [5]; 14 days elapsed after setting, yellow polyethylene sheet
  number of greenhouse whitefly adults parasitized on the tomato (mean value per cup): 75
Greenhouse whiteflies [5]; 18 days elapsed after setting, yellow polyethylene sheet
  number of greenhouse whitefly adults parasitized on the tomato (mean value per cup): 50
Greenhouse whiteflies [5]; 28 days elapsed after setting, yellow polyethylene sheet
  number of greenhouse whitefly adults parasitized on the tomato (mean value per cup): 20
Greenhouse whiteflies [5]; 35 days elapsed after setting, yellow polyethylene sheet
  number of greenhouse whitefly adults parasitized on the tomato (mean value per cup): 10
Greenhouse whiteflies [5]; 42 days elapsed after setting, yellow polyethylene sheet
  number of greenhouse whitefly adults parasitized on the tomato (mean value per cup): 3
